Legend:
[1] = target: T1, recombinant human acetylcholinesterase (HuAChE), wild type (Homo sapiens, UniProt P22303); conditions: read-out: Km (ATC); pH 8
[2] = target: T1, recombinant human acetylcholinesterase (HuAChE), wild type; assay type: biochemical
[3] = target: recombinant HuAChE mutant Phe338Ala (Homo sapiens, UniProt P22303, F369A); assay type: biochemical
[4] = target: recombinant HuAChE mutant Tyr337Ala (Homo sapiens, UniProt P22303, Y368A); assay type: biochemical
[5] = target: recombinant HuAChE mutant Glu202Gln (Homo sapiens, UniProt P22303, E233Q); assay type: biochemical
Sequence of recombinant HuAChE mutant Glu202Gln (P22303 32-614 E233Q limits assumed): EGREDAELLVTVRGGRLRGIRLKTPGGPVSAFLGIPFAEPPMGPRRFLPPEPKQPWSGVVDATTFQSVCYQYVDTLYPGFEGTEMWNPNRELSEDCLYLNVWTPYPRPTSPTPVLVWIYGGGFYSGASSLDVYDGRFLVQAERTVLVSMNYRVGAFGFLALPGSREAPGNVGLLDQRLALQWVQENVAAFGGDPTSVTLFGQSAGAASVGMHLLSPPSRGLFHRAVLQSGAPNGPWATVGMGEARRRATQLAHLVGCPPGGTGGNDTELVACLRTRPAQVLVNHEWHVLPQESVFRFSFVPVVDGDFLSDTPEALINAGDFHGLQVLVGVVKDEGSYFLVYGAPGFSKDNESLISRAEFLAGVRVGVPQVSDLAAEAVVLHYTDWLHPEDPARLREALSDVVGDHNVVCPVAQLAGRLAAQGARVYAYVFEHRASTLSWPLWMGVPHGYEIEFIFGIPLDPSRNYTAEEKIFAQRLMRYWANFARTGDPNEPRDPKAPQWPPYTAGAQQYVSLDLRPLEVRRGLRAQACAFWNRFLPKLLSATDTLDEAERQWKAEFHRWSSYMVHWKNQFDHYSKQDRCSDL

[6] = target: recombinant HuAChE mutant Glu450Ala (Homo sapiens, UniProt P22303, E481A); assay type: biochemical
Sequence of recombinant HuAChE mutant Glu450Ala (P22303 32-614 E481A limits assumed): as the sequence (P22303 32-614 E233Q limits assumed) above, with Q202E, E450A counted along it
CC(=O)SCC[N+](C)(C)C = test: purified protein, by the assay type; conditions: other: Tyr133Ala, sodium-phosphate buffer pH 8, 27°C
CC(=O)SCCC(C)(C)C = test: purified protein, by the assay type; conditions: pH 8.0; 27.0 °C

Sequence of recombinant HuAChE mutant Phe338Ala (P22303 32-614 F369A limits assumed): as the sequence (P22303 32-614 E233Q limits assumed) above, with Q202E, F338A counted along it
Sequence of recombinant HuAChE mutant Tyr337Ala (P22303 32-614 Y368A limits assumed): as the sequence (P22303 32-614 E233Q limits assumed) above, with Q202E, Y337A counted along it
T1 sequence (P22303 32-614): as the sequence (P22303 32-614 E233Q limits assumed) above, with Q202E counted along it

**Q.** How did the Km [1] turn out when `CC(=O)SCC[N+](C)(C)C.[I-]` [ATC, Acetylthiocholine iodide] was run?
**A.** Its Km is 130 ± 15 µM.

**Q.** With `CCOP(=O)(OCC)Oc1ccc([N+](=O)[O-])cc1` [paraoxon] as the molecule, how does the “ki (paraoxon) relative to the wild type” value [2] read?
**A.** Its value is 97 ±16 (1.00).

**Q.** And the “ki (paraoxon) relative to the wild type” value [3]?
**A.** The value was 7.1±0.6 (0.07).

**Q.** And the “ki, rate constant of phosphylation (paraoxon)” value (shortened to “ki, rate constant”) ([3]; acetylcholinesterase)?
**A.** Its value is 7.1±0.6 (0.07) x 10^-4.M^-1.min^-1.

**Q.** And the “ki (paraoxon) relative to the wild type” value [4]?
**A.** The value was 14.4±1.4 (0.15).

**Q.** And the “ki, rate constant” value ([4]; acetylcholinesterase)?
**A.** The value was 14.4±1.4 (0.15) x 10^-4.M^-1.min^-1.

**Q.** What about the “ki (paraoxon) relative to the wild type” value [5] of the same molecule?
**A.** Its value is 2.8±0.48(0.03).

**Q.** What about the “ki, rate constant” value ([5]; acetylcholinesterase) of the same molecule?
**A.** The value was 2.8±0.48(0.03) x 10^-4.M^-1.min^-1.

**Q.** What about the “ki (paraoxon) relative to the wild type” value [6] of the same molecule?
**A.** Its value is 1.9±0.7 (0.02).

**Q.** Which Km (CC(=O)SCC[N+](C)(C)C) does the source give for “recombinant HuAChE mutant Tyr133Ala (Homo sapiens; Y164A)” here?
**A.** The Km was 5750 µM.

**Q.** For “recombinant human acetylcholinesterase (HuAChE), wild type (Homo sapiens)”, which Km (CC(=O)SCCC(C)(C)C) is on record?
**A.** The Km was 280 ± 80 µM.

From EP0651055A2 (priority 1993, dated 1995)
